Experimental data published in article PMC5304334, “Antifouling potential of Nature-inspired sulfated compounds” (Scientific Reports, 2017).
“Also recorded” adds a separate entry of the source. Read-outs that look alike come from different tables or passages of the source.

What was measured:
[1] = Seawater stability under AF assay conditions (HPLC-DAD); format: physicochemical; conditions: 250 μM in filtered seawater, 15 h, 18 °C
Experimental: High performance liquid chromatography with Diode-Array Detection (HPLC-DAD) analyses were carried out on a System SMI Pump Series II (Gloucester, UK) equipped with a Rheodyne 7125 injector fitted with a 20 μL loop, a TSP-UV6000LP detector, and a Chromquest for Windows NT integrator and using a C-18 Nucleosil column (5 μm, 250 × 4.6 mm I.D.), from Macherey-Nagel (Düren, Germany); acetonitrile was of HPLC grade from Merck. HPLC ultrapure water was generated by a Milli-Q system (Millipore, Bedford, MA, USA). The mobile phase used was water with tetrabutylammonium bromide (TBAB, 25 mM) and acetonitrile (38:62) at a constant flow rate of 1.0 mL.min^−1. The mobile phase was filtered ([…]) and degassed for 15 min in an ultrasonic bath before use.
The seawater stability of the three most promising compounds 2, 6, and 12 in the time period (15 h) and temperature (18 °C) of the AF assay was evaluated by HPLC-DAD. Compounds were analyzed at 250 μM (final concentration) in filtered seawater ([…]). Incubations were performed in glass HPLC vials and three independent samples plus respective blank (filtered seawater) and controls (time zero - freshly prepared solutions of compounds) were analyzed.

[2] = Anti-settlement bioassay with mussel plantigrades (effectiveness and mortality); format: in vivo, Mytilus galloprovincialis; conditions: Mytilus galloprovincialis, in vivo, other: immersion in test solution in filtered seawater; mortality of plantigrades, 15 h, up to 500 μM; read-out: LC50, the median lethal dose
Experimental: (§1) M. galloprovincialis juvenile (0.5 cm shell length approximately) aggregates were collected from mussel beds from the intertidal rocky shore, during low neap tides at Memória beach, Matosinhos, Portugal (41°13′59″N; 8°43′28″W), and immediately transported to the laboratory. M. galloprovincialis plantigrade post-larvae (0.5–2 mm) were screened among the small mussel aggregates in a binocular magnifier (Olympus SZX2-ILLT), gently washed with filtered seawater to remove organic debris and sand particles and isolated in a petri dish with filtered seawater immediately before the bioassays.
(§2) For the screening bioassay, competent M. galloprovincialis plantigrades (showing exploring behavior, ie, moving their foot searching for the appropriate substrate to settle) were selected and exposed to the series of sulfated compounds 1–13 at two concentrations (250 and 50 μM) in 24-well microplates for 15 h, at 18 ± 1 °C, in the darkness. Bioassays time frame was selected based on preliminary bioassays to ensure that the response measured is reflecting the compounds effect. Test solutions were prepared in filtered seawater (previously treated by UV light, and carbon filters and mechanically filtered with […] filter before use) and obtained by dilution of the compounds stock solutions (50 mM) in ultra-pure water. Four well replicates were used per condition with five plantigrades per well and 2.5 mL of test solution. A negative control, with ultra-pure water was included in all bioassays, as well as a positive control with 5 μM CuSO4 (a potent AF agent). At the end of the exposure period, the anti-settlement activity was determined by the presence/absence of byssal threads produced by each individual efficiently attached for all the conditions tested.
(§3) Data from the anti-settlement and antibacterial screenings were analyzed using a one-way analysis of variance (ANOVA) followed by a Dunnett test against the control (p < 0.05). Semi-maximum response concentration that inhibited 50% larval settlement (EC50), semi-maximum response concentration that inhibited 20% bacterial growth (EC20) and the median lethal dose (LC50) for each bioactive compound were assessed using Probit regression analysis. Pearson Goodness-of-fit (Chi-Square) significance was considered at p < 0.05 for all analyses, and 95% lower and upper confidence limits [95% LCL; UCL] were presented. Therapeutic ratio (LC50/EC50) was used to evaluate the effectiveness vs toxicity of compounds[31][53][54]. The software IBM SPSS Statistics 21 was used for statistical analysis.

[3] = test system: Mytilus galloprovincialis plantigrades; assay: as above; format: in vivo; conditions: for Anti-settlement activity in screening (result in words): 250 and 50 μM, p < 0.05 Dunnett; for Anti-settlement activity in screening (result in words) / Concentration range with significant anti-settlement activity: versus negative control; for EC50: Mytilus galloprovincialis, read-out: EC50, minimum concentration that inhibited 50% of larval settlement; for Concentration range with significant anti-settlement activity: concentration-response 1.56–500 μM
Experimental: as §1, §2, §3

[4] = molecular target: T1, Electrophorus electric acetylcholinesterase Type V-S (Electrophorus electricus, UniProt O42275); assay: In vitro acetylcholinesterase activity (Ellman); format: biochemical; conditions: 50 μM compound
T1 construct: purchased SIGMA C2888
T1 sequence (O42275 24-633): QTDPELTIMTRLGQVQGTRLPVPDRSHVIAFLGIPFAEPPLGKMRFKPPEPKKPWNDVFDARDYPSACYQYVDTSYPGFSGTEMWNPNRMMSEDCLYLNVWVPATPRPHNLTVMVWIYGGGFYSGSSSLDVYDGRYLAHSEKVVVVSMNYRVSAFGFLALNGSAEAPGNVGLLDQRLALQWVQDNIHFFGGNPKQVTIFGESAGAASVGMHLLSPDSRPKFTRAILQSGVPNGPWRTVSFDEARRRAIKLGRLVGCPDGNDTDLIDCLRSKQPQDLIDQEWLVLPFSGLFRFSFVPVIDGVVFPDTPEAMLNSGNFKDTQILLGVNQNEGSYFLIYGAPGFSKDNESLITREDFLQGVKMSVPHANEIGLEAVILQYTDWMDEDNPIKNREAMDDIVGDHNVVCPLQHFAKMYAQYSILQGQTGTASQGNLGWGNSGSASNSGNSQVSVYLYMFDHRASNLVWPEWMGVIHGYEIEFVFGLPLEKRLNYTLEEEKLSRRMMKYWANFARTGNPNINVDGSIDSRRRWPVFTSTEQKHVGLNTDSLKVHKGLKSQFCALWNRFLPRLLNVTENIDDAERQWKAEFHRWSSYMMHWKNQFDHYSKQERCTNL
Experimental: The potential of compounds 2, 6 and 12 to inhibit acetylcholinesterases activity was evaluated using Electrophorus electric acetylcholinesterase Type V-S (SIGMA C2888, E.C. 3.1.1.7), according to Ellman et al.[47] with some modifications. Briefly, reaction solution containing phosphate buffer 1 M pH 7.2, dithiobisnitrobenzoate (DTNB) 10 mM (acid dithiobisnitrobenzoate and sodium hydrogen carbonate in phosphate buffer) and […] 0.075 M was added to pure acetylcholinesterase enzyme (0.25 U/mL) and each test sulfated compound (final concentration of 50 μM) in quadruplicate. The optical density was measured at 412 nm in a microplate reader during 5 min at 25 °C. A negative control (B) with ultra-pure water and a positive control (C+) with 20 mM eserine also included.

[5] = Water solubility (statement in discussion); format: physicochemical
[6] = test system: Agaricus bisporus tyrosinase; assay: In vitro tyrosinase inhibition assay; format: biochemical; conditions: 50 μM compound
Experimental: Tyrosinase inhibition assays were conducted using Agaricus bisporus tyrosinase (EC 1.14.18.1) according to Adhikari et al.[50] with slight modifications. The enzymatic reaction follows the catalytic conversion of L-Dopa to dopaquinone and the formation of dopachrome by measuring the absorvance at 475 nm. Briefly, tyrosinase (25 U/mL) is added to 50 mM fosfate buffer pH 6.5 and the sulfated compound at 50 μM. The enzymatic activity was triggered by the addition of L-dopa (25 mM). Kojic acid was included as positive control and ultra-pure water as negative control.

[7] = test system: Vibrio fischeri (NRRL-B-11177); assay: Luminescent Vibrio fischeri ecotoxicity assay (ISO11348); format: cell-based; conditions: for Inhibition of light radiation emitted by V. fischeri: 15 min or 30 min contact, up to 1000 mg/L; for EC50: Aliivibrio fischeri, V. fischeri luminescence
Experimental: (§4) After 5, 15 and 30 min of exposure, the light emitted as a by-product of Vibrio fischeri cellular respiration was measured at 490 nm. Any inhibition of cellular activity results in a decreased rate of respiration and a corresponding decrease in the rate of luminescence. The decrease of bacterial luminescence measured after 5, 15 or 30 min of exposition was used as test endpoint. Luminescence was measured using a LUMIStox photometer from DR LANGE, after a contact time of 15 min and 30 min at 15 ± 1 °C, taking into account a correction factor, fk, which is a measure of intensity change of control samples during the exposure time.
(§5) The pH of all samples was within the interval 6.0–8.5.

[8] = as above; format: cell-based; conditions: Vibrio fischeri; read-out: LC50 Vibrio fischeri
Experimental: as §4, §5

[9] = test system: Artemia salina nauplii; assay: Artemia salina nauplii lethality (ecotoxicity) test; format: in vivo; conditions: for Mortality of Artemia salina: 250 μM; for Mortality of A. salina nauplii / Toxicity to A. salina: 25, 50, and 250 μM, 48 h; for Toxicity to A. salina: versus negative control
Experimental: Selected sulfated compounds with AF potential 2, 6, and 12 were tested for general toxicity to nontarget species using the brine shrimp (Artemia salina) nauplii lethality test[51]. Briefly, A. salina eggs were allowed to hatch in nutrient–enriched seawater as nauplii for approximately 48 h at 25 °C. Toxicity tests were performed in the darkness in 96-wells microplates with eight replicates per condition and 15–20 nauplii per well. Serial diluted test solutions of the most promising sulfated AF compounds (25, 50, and 250 μM) were prepared in filtered seawater. K2Cr2O7 (13.6 μM) was included as positive control and ultra-pure water as negative control. Percentage of mortality was determined at 48 h of exposure.

[10] = test system: Halomonas aquamarina CECT 5000; assay: Antibacterial growth inhibition, Halomonas aquamarina; format: cell-based; conditions: H. aquamarina
Experimental: (§6) Antibacterial activities were evaluated against four strains of marine biofilm-forming bacteria Cobetia marina CECT 4278, Vibrio harveyi CECT 525, Halomonas aquamarina CECT 5000, and Pseudoalteromonas atlantica CECT 570, all from Spanish Type Culture Collection (CECT). The bacteria were inoculated and incubated for 24 h at 26 °C in marine broth (Difco) at an initial density of 0.1 (OD600) in 96 well flat-bottom microtiter plates. Sulfated compounds stock solutions were prepared in ultra-pure water. […] Bacterial growth inhibition in the presence of the test compounds was measured in quadriplicate by reading of optical density at 600 nm using a microplate reader (Biotek Synergy HT, Vermont, USA). Marine broth with ultra-pure water and penicilin-streptomycin-neomycin stabilized solution were used as negative (B) and positive (C) controls, respectively.
(§7) For the determination of maximal inhibitory concentrations (IC) a serial dilution of the stock solution was used to obtain final concentrations from 100 μM to 0.75 μM, the same range applied in antifouling bioassays plus one lower concentration, and the same procedure was applied.
as §3

[11] = test system: Vibrio harveyi CECT 525; assay: Antibacterial growth inhibition, Vibrio harveyi; format: cell-based; conditions: V. harveyi
Experimental: as §6, §7
Data from the anti-settlement and antibacterial screenings were analyzed using a one-way analysis of variance (ANOVA) followed by a Dunnett test against the control (p < 0.05). […]

[12] = 15 h, plantigrades, 15 h, 18 °C, 1.56–500 μM
[13] = 15 h, plantigrades, 15 h, 18 °C
[14] = NRRLB11177, 0.25 h, 15 min contact, read-out: EC50 15min
[15] = NRRLB11177, 0.5 h, 30 min contact, read-out: EC50 30min

## O=C(O)c1cc(OS(=O)(=O)O)c(OS(=O)(=O)O)c(OS(=O)(=O)O)c1 [Compound 12, gallic acid persulfate]
[1]
  Concentration detected relative to the initial one (seawater stability): at least 95%
[2]
  LC50 at 15 h: > 500 µM
[3]; 15 h
  Anti-settlement activity in screening (result in words): significant anti-settlement responses at 50 μM
[3]; [12]
  EC50: 17.7 µM
[3]; [13]
  EC50: 8.95 µg/mL
[3]
  Concentration range with significant anti-settlement activity: 12.5 to 500 µM
[3]; plantigrades, 15 h, 18 °C
  EC50, minimum concentration that inhibited 50% of larval settlement: 8.4 µg/mL
[4]
  Acetylcholinesterase activity inhibition: not inhibited
[5]
  Water solubility: highly water soluble
[6]
  Tyrosinase activity inhibition: not inhibited
[7]
  Inhibition of light radiation emitted by V. fischeri: no inhibition of light radiation emitted was found; also recorded: lack of light radiation inhibition
[7]; [14]
  EC50: > 1000 µg/mL
[7]; [15]
  EC50: > 1000 µg/mL
[8]
  CC50: > 1000 µg/mL
[9]
  Mortality of Artemia salina: < 10%
  Mortality of A. salina nauplii: less than 10%
  Toxicity to A. salina: no toxicity

## O=c1c(O[C@@H]2O[C@H](COS(=O)(=O)O)[C@@H](OS(=O)(=O)O)[C@H](OS(=O)(=O)O)[C@H]2OS(=O)(=O)O)c(-c2ccccc2)oc2cc(O[C@@H]3O[C@H](COS(=O)(=O)O)[C@@H](OS(=O)(=O)O)[C@H](OS(=O)(=O)O)[C@H]3OS(=O)(=O)O)ccc12 [Compound 4, 3,7-di(β-D-glucopyranosyl)flavone persulfate]
[3]; 15 h
  Anti-settlement activity in screening (result in words): did not show notable activity
[10]; 12.5 μM, 24 h, 26 °C
  Bacterial growth inhibition in screening: significant inhibitory activity
[10]; 0.75–100 μM
  Bacterial growth inhibition at all the concentrations tested: less than 30%
[10]; Vreelandella aquamarina, CECT5000, 12.5 μM
  inhibition at 12.5 µM: 15.3%
[10]; Vreelandella aquamarina, CECT5000, 100 μM
  inhibition at 100 µM: 26.5%
[11]
  EC20, minimum concentration that inhibited 20% of bacterial growth: >100 µM

## O=c1c2ccc(O[C@@H]3O[C@H](COS(=O)(=O)O)[C@@H](OS(=O)(=O)O)[C@H](OS(=O)(=O)O)[C@H]3OS(=O)(=O)O)cc2oc2cc(O[C@@H]3O[C@H](COS(=O)(=O)O)[C@@H](OS(=O)(=O)O)[C@H](OS(=O)(=O)O)[C@H]3OS(=O)(=O)O)ccc12 [Compound 6]
[1]
  Concentration detected relative to the initial one (seawater stability): at least 95%
[2]
  LC50 at 15 h: > 500 µM
[3]; 15 h
  Anti-settlement activity in screening (result in words): significant anti-settlement responses at 50 μM; also recorded: highly active
[3]; [12]
  EC50: 23.2 µM
[3]; [13]
  EC50: 31.7 µg/mL
[3]
  Concentration range with significant anti-settlement activity: 25 to 500 µM
[4]
  Acetylcholinesterase activity inhibition: not inhibited
[5]
  Water solubility: highly water soluble
[6]
  Tyrosinase activity inhibition: not inhibited
[7]
  Inhibition of light radiation emitted by V. fischeri: no inhibition of light radiation emitted was found; also recorded: lack of light radiation inhibition
[7]; [14]
  EC50: > 1000 µg/mL
[7]; [15]
  EC50: > 1000 µg/mL
[8]
  CC50: > 1000 µg/mL
[9]
  Mortality of Artemia salina: < 10%
  Mortality of A. salina nauplii: less than 10%
  Toxicity to A. salina: no toxicity
